Results taken from ChEMBL document CHEMBL1201862, “PubChem BioAssay data set” (2004).
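Step 1: Grow cells in 96-well plates. Step 2: Expose to compound for 48 hours at 5 concentrations. Step 3: Interpolate endpoints linearly; if unreached, use highest concentration. GI50: concentration for 50% inhibition of growth.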 Activity calls are given as the source filed them. No stated cut-off is given here; in the data, active = GI50 up to about 1.1 µM and inactive = higher.

Key:
Experiment in all cases: DTP human tumour cell line panel, 48 h
786-0 = test system: 786-0
A498 = test system: A498
A549 = test system: A549
CAKI-1 = test system: CAKI-1
COLO 205 = test system: COLO 205
DU-145 = test system: DU-145
EKVX = test system: EKVX
HCT-15 = test system: HCT-15
IGROV-1 = test system: IGROV-1
K562 = test system: K562
MDA-MB-231 = test system: MDA-MB-231
NCI-H226 = test system: NCI-H226
NCI/ADR-RES = test system: NCI/ADR-RES
OVCAR-5 = test system: OVCAR-5
SF-268 = test system: SF-268
SK-MEL-28 = test system: SK-MEL-28
SK-MEL-5 = test system: SK-MEL-5
SN12C = test system: SN12C
SNB-75 = test system: SNB-75
M19-MEL = test system: M19-MEL

| Structure (SMILES) | GI50 (786-0) | GI50 (A498) | GI50 (A549) | GI50 (CAKI-1) | GI50 (COLO 205) | GI50 (DU-145) | GI50 (EKVX) | GI50 (HCT-15) [µM] | GI50 (IGROV-1) | GI50 (K562) | GI50 (MDA-MB-231) | GI50 (NCI-H226) | GI50 (NCI/ADR-RES) | GI50 (OVCAR-5) | GI50 (SF-268) | GI50 (SK-MEL-28) | GI50 (SK-MEL-5) | GI50 (SN12C) | GI50 (SNB-75) | GI50 (M19-MEL) |
| --- | --- | --- | --- | --- | --- | --- | --- | --- | --- | --- | --- | --- | --- | --- | --- | --- | --- | --- | --- | --- |
| COc1ccc2nc(-c3ccc(O)cc3)cn2c1 | 58.7 µM (inactive) | 71.4 µM (inactive) | 64 µM (inactive) | 55.8 µM (inactive) | 43.5 µM (inactive) | 86.9 µM (inactive) | 98.6 µM (inactive) | 48.8 | 42.4 µM (inactive) | 37.1 µM (inactive) | > 100 µM (inactive) | > 100 µM (inactive) | 65.8 µM (inactive) | > 100 µM (inactive) | 56.8 µM (inactive) | 85.5 µM (inactive) | 16.6 µM (inactive) | 94.8 µM (inactive) | 95.5 µM (inactive) | – |
| O=C(NO)c1cccc(OCc2ccc(Br)cc2)c1 | 2.92 µM (inactive) | 8.93 µM (inactive) | 5.28 µM (inactive) | 3.11 µM (inactive) | 8.11 µM (inactive) | 3.13 µM (inactive) | 5.9 µM (inactive) | 0.991 | 3.35 µM (inactive) | 3.6 µM (inactive) | 12.3 µM (inactive) | 3.78 µM (inactive) | 2.93 µM (inactive) | 12.6 µM (inactive) | 4.03 µM (inactive) | 14.2 µM (inactive) | 3.98 µM (inactive) | 2.79 µM (inactive) | 4.29 µM (inactive) | – |
| O=C(OC(=C(c1ccccc1)c1ccccc1)N1CCCC1=S)C(c1ccccc1)c1ccccc1 | > 10 µM (inactive) | 8.63 µM (inactive) | 4.67 µM (inactive) | > 10 µM (inactive) | 2.21 µM (inactive) | > 10 µM (inactive) | > 10 µM (inactive) | 4.13 | > 10 µM (inactive) | 3.88 µM (inactive) | 7.82 µM (inactive) | 4.78 µM (inactive) | 5.87 µM (inactive) | > 10 µM (inactive) | > 10 µM (inactive) | > 10 µM (inactive) | > 10 µM (inactive) | > 10 µM (inactive) | 4.91 µM (inactive) | – |
| O=c1[nH]cc(/C=N\Nc2ccccc2)c(=O)[nH]1 | > 100 µM (inactive) | > 100 µM (inactive) | > 100 µM (inactive) | > 100 µM (inactive) | 66.2 µM (inactive) | > 100 µM (inactive) | > 100 µM (inactive) | 36.3 | > 100 µM (inactive) | 3.96 µM (inactive) | > 100 µM (inactive) | > 100 µM (inactive) | > 100 µM (inactive) | > 100 µM (inactive) | > 100 µM (inactive) | > 100 µM (inactive) | 11.6 µM (inactive) | > 100 µM (inactive) | > 100 µM (inactive) | – |
| O=S(=O)(F)Cc1ccccc1 [PHENYLMETHYLSULFONYLFLUORIDE] | > 100 µM (inactive) | > 100 µM (inactive) | > 100 µM (inactive) | > 100 µM (inactive) | > 100 µM (inactive) | > 100 µM (inactive) | > 100 µM (inactive) | > 100 | > 100 µM (inactive) | > 100 µM (inactive) | > 100 µM (inactive) | > 100 µM (inactive) | > 100 µM (inactive) | > 100 µM (inactive) | > 100 µM (inactive) | > 100 µM (inactive) | > 100 µM (inactive) | > 100 µM (inactive) | > 100 µM (inactive) | – |
| CC1=C(O)C(=O)C=C2C1=CC=C1[C@@]2(C)CC[C@@]2(C)C3C[C@@H](C)C(=O)[C@@H](O)[C@]3(C)CC[C@]12C (stereo partly specified) | 0.946 µM (active) | 6.32 µM (inactive) | 13.9 µM (inactive) | 1.47 µM (inactive) | 1.71 µM (inactive) | 1.79 µM (inactive) | 2.08 µM (inactive) | 1.91 | 1.73 µM (inactive) | 0.891 µM (active) | 2 µM (inactive) | 4.44 µM (inactive) | 2.97 µM (inactive) | 4.23 µM (inactive) | 3.38 µM (inactive) | 1.95 µM (inactive) | 3.35 µM (inactive) | 2.08 µM (inactive) | 8.38 µM (inactive) | – |
| Cc1cc(C)c(C(=O)/C=C/c2ccccc2)c(C)c1 | 27.7 µM (inactive) | – | 30.2 µM (inactive) | 36.5 µM (inactive) | 29 µM (inactive) | – | 40.4 µM (inactive) | 16.5 | 77.4 µM (inactive) | 26.5 µM (inactive) | – | 22.8 µM (inactive) | – | – | 20.6 µM (inactive) | > 10 µM (inactive) | > 100 µM (inactive) | 14.4 µM (inactive) | 40.9 µM (inactive) | 28.5 µM (inactive) |
| COc1cccc(/C=C\c2cc(OC)c(OC)c(OC)c2)c1 | 0.575 µM (active) | – | 0.668 µM (active) | 0.887 µM (active) | 0.807 µM (active) | – | 3.49 µM (inactive) | 0.693 | 3.15 µM (inactive) | 0.373 µM (active) | – | 0.745 µM (active) | – | 22.2 µM (inactive) | 3.66 µM (inactive) | 0.507 µM (active) | – | 4.08 µM (inactive) | 0.652 µM (active) | 12.1 µM (inactive) |
| CC(=O)Nc1ccc(-c2nnc(SCC(=O)Nc3cccc(C)c3)o2)cc1 | 12.8 µM (inactive) | – | 21.3 µM (inactive) | 16.7 µM (inactive) | 14.8 µM (inactive) | – | – | 8.97 | 11.7 µM (inactive) | 10.8 µM (inactive) | – | 14.4 µM (inactive) | – | 13.4 µM (inactive) | 24.5 µM (inactive) | 13.8 µM (inactive) | 11.1 µM (inactive) | 15.2 µM (inactive) | 19.5 µM (inactive) | 12.2 µM (inactive) |
| COc1c2nc(CCl)n(C)c(=O)c2c(OC)c2c(=O)n(C)c(CCl)nc12 | 0.904 µM (active) | 2.33 µM (inactive) | 3.08 µM (inactive) | 1.6 µM (inactive) | 1.41 µM (inactive) | 3.4 µM (inactive) | 3.31 µM (inactive) | 1.48 | 1.94 µM (inactive) | 0.689 µM (active) | 1.55 µM (inactive) | 3.06 µM (inactive) | 2.49 µM (inactive) | 2.3 µM (inactive) | 1.48 µM (inactive) | 1.85 µM (inactive) | 1.92 µM (inactive) | 1.69 µM (inactive) | 0.719 µM (active) | – |
| Cc1cccc(/C=N/NC(=S)N(C)CCc2ccccn2)n1 | 0.281 µM (active) | 0.285 µM (active) | 0.417 µM (active) | 0.421 µM (active) | 0.183 µM (active) | 0.236 µM (active) | 0.391 µM (active) | 0.196 | 0.366 µM (active) | 0.163 µM (active) | 1.16 µM (inactive) | 0.39 µM (active) | 0.269 µM (active) | 4.93 µM (inactive) | 0.278 µM (active) | 0.501 µM (active) | 0.314 µM (active) | 0.378 µM (active) | 0.483 µM (active) | – |
| CNn1c(C)n[nH]c1=O | > 100 µM (inactive) | > 100 µM (inactive) | > 100 µM (inactive) | > 100 µM (inactive) | > 100 µM (inactive) | > 100 µM (inactive) | > 100 µM (inactive) | > 100 | > 100 µM (inactive) | > 100 µM (inactive) | > 100 µM (inactive) | > 100 µM (inactive) | > 100 µM (inactive) | > 100 µM (inactive) | > 100 µM (inactive) | > 100 µM (inactive) | > 100 µM (inactive) | > 100 µM (inactive) | 50.8 µM (inactive) | – |
